Measurements from US20190297885A1 (Dow Global Technologies LLC, priority 2016, published 2019).

Test system: Chlorella sp. ATCC 7516
Assay: Algal efficacy testing of dry paint films (modified ASTM 5589, 6-well plates)
Assay type: cell-based
Conditions: 504 h
Method: These paints were then diluted with a biocide free acrylic/silicone based paint and mixed to prepare targeted concentrations of biocide combinations for the testing. The total biocides concentrations obtained were 125, 250, 500, 1000, 2000 and 5000 ppm. After biocides addition or dilution, the paints were mixed 90 seconds with the horse power shaker (AXEL 75M3372/Agitateur SO-10MI) until uniformity was achieved. […] After one day, the paints were applied to Schleicher & Schuell filter paper at 280 μm wet film thickness and dried for 3 days at room temperature avoiding direct exposure to sunlight. Square discs (1.8 cm×1.8 cm) were cut out from each panel and were used as the substrate for algal efficacy tests. This sample size allowed for an agar border when the sample disc was placed into the well of the test plate.
Algal efficacy was tested according to modified ASTM 5589 which is a standard accelerated test method for determining resistance of various coatings (including paints) to algal defacement. To accommodate for high-throughput screening, this method was scaled down from petri plates to 6-well plates. […]
At the end of the incubation period the samples were scored for percent inhibition regarding color intensity compared to the blank sample
The SI is calculated based on F. C. […]

Structure (SMILES) | inhibition at 10000 ppm (Total conc 10,000 ppm in paint, three weeks, color intensity vs blank, pass level 75%) [%] | inhibition at 1000 ppm [%]
N#Cc1c(Cl)c(Cl)c(Cl)c(C#N)c1Cl [Chlorothalonil, 2,4,5,6-tetrachloroisophthalonitrile] | 15 | 
O=c1[nH]c2c(c(=O)n1C1CCCCC1)CCC2 [Lenacil, 3-Cyclohexyl-6,7-dihydro-1H-cyclopentapyrimidine-2,4-(3H,5H)-dione] |  | 90
